This note sets out measurements from patent US12448394B2, “Heterocyclic pyrazole derivatives as type III receptor tyrosine kinase inhibitors” (DEVELOPMENT CENTER FOR BIOTECHNOLOGY, priority 2019, dated 2025).

Numbering of substitutions follows the chain as printed.

Experiment [1] has as its target T1, FLT3 kinase (Homo sapiens, UniProt P36888).
T1 construct: purchased SignalChem
T1 sequence (P36888 27-993): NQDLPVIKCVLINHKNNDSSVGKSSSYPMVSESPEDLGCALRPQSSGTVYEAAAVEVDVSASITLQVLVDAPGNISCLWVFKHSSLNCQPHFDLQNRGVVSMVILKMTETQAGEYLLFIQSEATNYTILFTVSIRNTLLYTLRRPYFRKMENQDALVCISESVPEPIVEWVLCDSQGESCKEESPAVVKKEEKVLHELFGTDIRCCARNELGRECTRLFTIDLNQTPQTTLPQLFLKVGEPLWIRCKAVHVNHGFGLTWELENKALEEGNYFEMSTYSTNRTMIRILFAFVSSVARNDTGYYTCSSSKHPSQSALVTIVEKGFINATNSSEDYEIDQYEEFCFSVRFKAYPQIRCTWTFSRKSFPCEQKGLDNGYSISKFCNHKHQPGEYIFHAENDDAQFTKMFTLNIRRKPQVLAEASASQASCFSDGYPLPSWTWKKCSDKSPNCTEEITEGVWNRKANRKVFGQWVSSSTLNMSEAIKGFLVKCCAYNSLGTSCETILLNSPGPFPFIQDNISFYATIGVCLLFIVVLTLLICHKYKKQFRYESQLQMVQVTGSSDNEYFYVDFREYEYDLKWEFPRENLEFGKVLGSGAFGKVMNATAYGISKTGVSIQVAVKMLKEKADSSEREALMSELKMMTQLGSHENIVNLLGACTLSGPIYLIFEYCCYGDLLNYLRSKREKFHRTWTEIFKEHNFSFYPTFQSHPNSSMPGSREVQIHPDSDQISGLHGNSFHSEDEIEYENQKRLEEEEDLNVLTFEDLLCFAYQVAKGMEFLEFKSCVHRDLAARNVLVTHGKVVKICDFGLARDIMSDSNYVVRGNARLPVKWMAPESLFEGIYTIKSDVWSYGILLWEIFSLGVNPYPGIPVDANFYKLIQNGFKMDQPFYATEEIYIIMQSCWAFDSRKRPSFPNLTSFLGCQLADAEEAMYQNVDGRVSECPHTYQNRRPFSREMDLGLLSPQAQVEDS
The experiment in a line: FLT3 kinase assay (AlphaScreen). In kind it is biochemical. The note with it: mean; read-out: Biochemical activity (Mean IC50, nM) FLT3. As for the experimental part:
(§1) Inhibition of FLT3 kinase activity by a test compound disclosed herein was estimated by AlphaScreen (PerkinElmer, Akron, Ohio, USA). Standard assay conditions were 1.5 ng of recombinant FLT3 kinase (SignalChem, Richmond, BC, Canada) with 6 ng Biotin-conjugated Poly-(Glu 4: Tyr 1) (Cisbio, Bedford, MA, USA) in the assay buffer (10 μM ATP, 10 mM MOPs, pH7.0, 0.21 mM EDTA, 0.5% glycerol, 1 mg/mL BSA, 0.01% 2-mercaptoethanol, 0.001% Brij35, 10 mM MgCl2) in a final volume of 25 μL. Reactions were incubated at 30° C. for 30 min and stopped by adding 5 μL of 50 mM EDTA. Analysis of resulting product using an AlphaScreen kit and counted with Enspire Alpha (PerkinElmer, Waltham, MA, USA). […] The IC50 values of inhibitors were determined after carrying out assays with each compound at serially diluted concentrations in duplication. The results were analyzed using linear regression software (GraphPad Prism 5; GraphPad Software Inc.)

Experiment [2] concerns the target T2, FLT3-D835Y mutant kinase (Homo sapiens, UniProt P36888, D835Y).
T2 construct: purchased SignalChem
T2 sequence (P36888 27-993 D835Y): T1 sequence (P36888 27-993) with D809Y
The experiment in a line: FLT3-D835Y mutant kinase assay (AlphaScreen). The note with it: mean; read-out: Biochemical activity (Mean IC50, nM) FLT3-D835Y. It is filed as biochemical. As for the experimental part:
as §1, with “FLT3-D835Y mutant” for “FLT3”, “(PerkinElmer).” for “(PerkinElmer, Akron, Ohio, USA).”, “1” for “1.5”, “(SignalChem)” for “(SignalChem, Richmond, BC, Canada)”, “(Cisbio)” for “(Cisbio, Bedford, MA, USA)”, “(PerkinElmer).” for “(PerkinElmer, Waltham, MA, USA).”
For orientation: Bead proximity is the source of the signal in Alpha formats.

In experiment [3] the test system is HCC827 NSCLC cell with EGFR exon 19 deletion mutation. The experiment in a line: HCC827 cell proliferation assay (counter screen). It is filed as cell-based, human. The note with it: Homo sapiens, HCC827 cells, 72 hours treatment, CellTiter96, read-out: anti-proliferation activity HCC827 EGFR Exon19 del, IC50 ranking. Here is the method:
(§2) Inhibitions of cell growths by compounds were measured using CellTiter™-96 assay. The cytotoxicities of compounds of the invention were evaluated in cell line panels with different signaling pathway dependencies, including MV4-11 human acute myeloid leukemia cell with FLT3-ITD mutation, Molm-14 human acute myeloid leukemia cell with FLT3-ITD mutation, THP-1 human acute monocytic leukemia cell with NRAS G12D mutation, A375 melanoma cell with BRAF V600E mutation, and HCC827 NSCLC cell with EGFR exon 19 deletion mutation.
HCC827 cells are non-small cell lung carcinoma (NSCLC) cells encoding EGFR exon 19 deletion mutation, which renders the cell growth dependent on EGFR signaling instead of class III RTKs signaling. HCC827 cells (catalog #CRL-2868) were obtained from the ATCC. Briefly, cells were cultured in RPMI1640 medium supplemented with 10% FBS and incubated at 37° C. in 5% CO2 atmosphere. Cells were allowed to expand until reaching saturation, at which point they were sub-cultured or harvested for assay use.
(§3) MV4-11, Molm-14, THP-1, A375, and HCC827 cells were seeded into 96-well plates at 6500, 25000, 5000, 2000 and 8000 cells/well, respectively, and incubated at 37° C., 5% CO2 overnight. Then, these seeded cells were treated with increasing concentrations of the test compounds and incubated for another 72 hours. At the end of the incubation, CellTiter96® AQueous One Solution Reagent (Promega, […]) was added and incubated for the additional 2˜4 hours. Cell viability was determined by measuring absorbance at 490 nm using EMax® microplate reader (Molecular Devices, San Jose, CA, USA).
On the technique in general: A counterscreen serves to expose hits that act by an unwanted route or on another target.

Experiment [4] deals with MV4-11 human acute myeloid leukemia cell with FLT3-ITD mutation. The experiment in a line: MV4-11 cell proliferation assay (CellTiter 96). In kind it is cell-based. The note with it: Homo sapiens, MV4-11, 72 h, MV4-11 cells, 72 hours treatment, CellTiter96; read-out: anti-proliferation activity MV4-11 (FLT3-ITD), IC50 ranking. As for the experimental part: as §2
The compounds disclosed herein were tested in MV4-11 cell proliferation assay to determine their cellular potencies against FLT3 signal pathway dependent cell growths. MV4-11 cells are human acute myeloid leukemia (AML) cells harboring ligand-independent FLT3-ITD activating mutation, which renders the abnormal proliferation of AML cells FLT3 signaling pathway dependent. Inhibition of FLT3 kinase activity will result in reduced growths and/or cell deaths. MV4-11 cells (catalog #CRL-9591) were obtained from the American Type Culture Collection (ATCC, Manassas, VA). Briefly, cells were grown in IMDM medium supplemented with 10% heat inactivated fetal bovine serum and incubated at 37° C. in 5% CO2 atmosphere. Cells were allowed to expand until reaching saturation, at which point they were sub-cultured or harvested for assay use.
as §3

Experiment [5] concerns Molm-14 human acute myeloid leukemia cell with FLT3-ITD mutation. Kind of experiment: Molm-14 cell proliferation assay (CellTiter 96). It is filed as cell-based. Particulars: Homo sapiens; Molm-14 cells, 72 hours treatment, CellTiter96; read-out: anti-proliferation activity Molm-14 (FLT3-ITD), IC50 ranking. As for the experimental part:
as §2
The compounds disclosed herein were tested in Molm-14 cell proliferation assay to determine their cellular potencies against FLT3 signal pathway dependent cell growths. Molm-14 cells are human acute myeloid leukemia (AML) cells harboring ligand-independent FLT3-ITD activating mutation, which renders the abnormal proliferation of the AML cells FLT3 signaling pathway dependent. Inhibition of FLT3 kinase activity will result in reduced growths and/or cell deaths. […] Briefly, cells were grown in RPMI 1640 medium supplemented with 10% heat inactivated fetal bovine serum and incubated at 37° C. in 5% CO2 atmosphere. Cells were allowed to expand until reaching saturation, at which point they were sub-cultured or harvested for assay use.
as §3

Experiment [6] has as its system A375 melanoma cell with BRAF V600E mutation. Kind of experiment: A375 cell proliferation assay (counter screen). The note with it: Homo sapiens, A-375, A375 cells, 72 hours treatment, CellTiter96, read-out: anti-proliferation activity A375 BRAF V600E, IC50 ranking. In kind it is cell-based, human. Here is the method:
as §2
A375 cells are melanoma cells encoding BRFA V600E mutation, which renders the cell growth dependent on BRAF signaling instead of class III RTKs signaling. A375 cells (catalog #CRL-1619) were obtained from the ATCC. Briefly, cells were cultured in DMEM containing 10% FBS and incubated at 37° C. in 5% CO2 atmosphere. Cells were allowed to expand until reaching saturation, at which point they were sub-cultured or harvested for assay use.
as §3

Experiment [7] has as its system THP-1 human acute monocytic leukemia cell with NRAS G12D mutation. The experiment in a line: THP-1 cell proliferation assay (counter screen). In kind it is cell-based. Particulars: Homo sapiens, THP-1 cells, 72 hours treatment, CellTiter96, read-out: anti-proliferation activity THP-1 NRAS N12D, IC50 ranking. Here is the method: as §2
THP-1 cells are human acute monocytic leukemia cells with NRAS G12D mutation, which renders the cell growth independent of class III RTKs signaling. THP-1 cells (catalog #TIB-202) were obtained from the ATCC. Briefly, cells were grown in RPMI 1640 medium supplemented with 10% heat inactivated fetal bovine serum and 0.05 mM 2-mercaptoethanol and incubated at 37° C. in 5% CO2 atmosphere. Cells were allowed to expand until reaching saturation, at which point they were sub-cultured or harvested for assay use.
as §3

As to `COc1ccc(-c2n[nH]c3c2Cc2sc(-c4ccc(N)nc4)cc2-3)cc1` [Example H, 5-(3-(4-methoxyphenyl)-1,4-dihydrothieno[2′,3′:4,5]cyclopenta[1,2-c]pyrazol-6-yl)pyridin-2-amine, reference compound], the IC50 in experiment [1] came to 8 nM; in experiment [2], 15 nM.

On to `Cn1ncc2ccc(-c3n[nH]c4c3Cc3sc(-c5ccc(CN6CCOCC6)cn5)cc3-4)cc21` [Compound 55, 4-((6-(3-(1-methyl-1H-indazol-6-yl)-1,4-dihydro-thieno[2′,3′:4,5]cyclopenta [1,2-c]pyrazol-6-yl)pyridin-3-yl)methyl) morpholine], for which the IC50 was greater than 10000 nM in experiment [3]; less than 30 nM in experiment [4]; less than 30 nM in experiment [5]; greater than 10000 nM in experiment [6]; greater than 10000 nM in experiment [7].
